Laboratory results as given in patent US20240400544A1, “N-(HYDROXYALKYL (HETERO)ARYL) TETRAHYDROFURAN CARBOXAMIDE ANALOGS AS MODULATORS OF SODIUM CHANNELS” (VERTEX PHARMACEUTICALS INCORPORATED, priority 2021, published 2024).

biological target: human NaV 1.8 (Homo sapiens, UniProt Q9Y5Y9); assay: E-VIPR Assay Detecting and Measuring NaV Inhibition Properties; assay type: cell-based; details: HEK cells expressing a truncated form of human NaV 1.8 with full channel activity; electrical stimulation, membrane potential FRET dyes; read-out: measured IC50 value in the E-VIPR Assay
Sequence (Q9Y5Y9 126-1722 limits assumed): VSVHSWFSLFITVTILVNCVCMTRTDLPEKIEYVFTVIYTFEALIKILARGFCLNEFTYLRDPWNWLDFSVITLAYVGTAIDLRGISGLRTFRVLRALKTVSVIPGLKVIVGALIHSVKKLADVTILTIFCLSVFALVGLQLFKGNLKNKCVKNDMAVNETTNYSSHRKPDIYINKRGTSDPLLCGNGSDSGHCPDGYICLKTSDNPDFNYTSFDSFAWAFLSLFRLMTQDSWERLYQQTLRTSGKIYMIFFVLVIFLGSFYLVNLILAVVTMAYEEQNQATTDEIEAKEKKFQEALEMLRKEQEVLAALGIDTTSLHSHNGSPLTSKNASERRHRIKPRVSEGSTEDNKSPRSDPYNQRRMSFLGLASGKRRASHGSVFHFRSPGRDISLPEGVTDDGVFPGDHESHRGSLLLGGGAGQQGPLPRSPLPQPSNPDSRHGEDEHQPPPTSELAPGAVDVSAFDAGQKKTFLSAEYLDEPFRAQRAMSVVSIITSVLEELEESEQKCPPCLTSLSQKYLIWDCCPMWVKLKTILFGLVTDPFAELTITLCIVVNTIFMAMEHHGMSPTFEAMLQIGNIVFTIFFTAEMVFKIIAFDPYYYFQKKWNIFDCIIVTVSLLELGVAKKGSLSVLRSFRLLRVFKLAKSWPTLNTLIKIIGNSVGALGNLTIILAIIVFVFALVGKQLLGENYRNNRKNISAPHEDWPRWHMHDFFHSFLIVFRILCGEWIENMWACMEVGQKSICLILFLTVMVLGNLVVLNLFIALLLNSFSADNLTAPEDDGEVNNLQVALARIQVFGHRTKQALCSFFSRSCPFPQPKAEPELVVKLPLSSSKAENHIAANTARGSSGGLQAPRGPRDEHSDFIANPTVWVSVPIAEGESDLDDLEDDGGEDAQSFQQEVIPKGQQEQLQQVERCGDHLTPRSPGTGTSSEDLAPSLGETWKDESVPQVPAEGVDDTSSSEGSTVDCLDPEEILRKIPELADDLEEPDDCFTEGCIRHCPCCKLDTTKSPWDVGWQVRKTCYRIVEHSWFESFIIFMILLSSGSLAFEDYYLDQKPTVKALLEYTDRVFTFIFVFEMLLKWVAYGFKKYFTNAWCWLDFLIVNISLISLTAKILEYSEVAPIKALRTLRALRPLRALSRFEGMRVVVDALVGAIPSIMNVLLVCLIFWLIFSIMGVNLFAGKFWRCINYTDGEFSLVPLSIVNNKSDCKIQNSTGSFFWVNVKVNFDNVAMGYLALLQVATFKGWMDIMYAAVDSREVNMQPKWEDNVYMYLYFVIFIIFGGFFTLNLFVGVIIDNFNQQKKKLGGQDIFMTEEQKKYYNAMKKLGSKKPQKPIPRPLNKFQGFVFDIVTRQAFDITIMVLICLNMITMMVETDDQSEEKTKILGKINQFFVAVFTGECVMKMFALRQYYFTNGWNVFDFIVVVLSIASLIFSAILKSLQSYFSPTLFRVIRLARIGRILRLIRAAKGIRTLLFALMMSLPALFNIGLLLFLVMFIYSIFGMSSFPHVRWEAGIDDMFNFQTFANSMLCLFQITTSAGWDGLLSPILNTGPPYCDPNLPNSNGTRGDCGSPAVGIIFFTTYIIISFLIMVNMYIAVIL
Excerpt: E-VIPR Assay Detecting and Measuring NaV Inhibition Properties
Sodium ion channels are voltage-dependent proteins that can be activated by inducing membrane voltage changes by applying electric fields. The electrical stimulation instrument and methods of use, referred to as E-VIPR, are described in International Publication No. WO 2002/008748 A3 and C.-J. Huang et al. Characterization of voltage-gated sodium channel blockers by electrical stimulation and fluorescence detection of membrane potential, 24 Nature Biotech. 439-46 (2006), both of which are incorporated by reference in their entirety. The instrument comprises a microtiter plate handler, an optical system for exciting the coumarin dye while simultaneously recording the coumarin and oxonol emissions, a waveform generator, a current- or voltage-controlled amplifier, and parallel electrode pairs that are inserted into assay plate wells. Under integrated computer control, this instrument passes user-programmed electrical stimulus protocols to cells within the wells of the microtiter plate.
16-20 hours prior to running the assay on E-VIPR, HEK cells expressing a truncated form of human NaV 1.8 with full channel activity were seeded into microtiter 384-well plates, pre-coated with matrigel, at a density of 25,000 cells per well. 2.5-5% KIR2.1 Bacmam virus was added to the final cell suspension before seeding into cell plates. HEK cells were grown in Dulbecco's Modified Eagle's Medium (DMEM) supplemented with 10% FBS (Fetal Bovine Serum, qualified; Sigma #F4135), 1% NEAA (Non-Essential Amino Acids, Gibco #11140), 1% HEPES (Gibco #15630), 1% Pen-Strep (Penicillin-Streptomycin; Gibco #15140) and 5 μg/ml Blasticidin (Gibco #R210-01). Cells were expanded in vented cap cell culture flasks, with 90-95% humidity and 5% CO2.
2.5-5% KIR 2.1 Bacmam virus (produced in-house), prepared as described in Section 3.3 of J. A. Fornwald et al., Gene Expression in Mammalian Cells Using BacMam, a Modified Baculovirus System, 1350 Methods in Molecular Biology 95-116 (2016), the entire contents of which are incorporated by reference. The concentration used can be dependent on viral titer of each batch.
5 mM DiSBAC6(3), a voltage sensitive oxonol acceptor (CAS number 169211-44-3; 5-[3-(1,3-dihexylhexahydro-4,6-dioxo-2-thioxo-5-pyrimidinyl)-2-propen-1-ylidene]-1,3-dihexyldihydro-2-thioxo-4,6(1H,5H)-pyrimidinedione), in dry DMSO. The preparation of DiSBAC6(3) is analogous to that of DiSBAC4(3) as described in Voltage Sensing by Fluorescence Resonance Energy Transfer in Single Cells, Gonzalez, J. E. and Tsien, R. Y. (1995) Biophys. J. 69, 1272-1280.
5 mM CC2-DMPE, a commercially available membrane-bound coumarin phospholipid FRET donor (ThermoFisher Scientific catalog number K1017, CAS number 393782-57-5; tetradecanoic acid, 1,1′-[(1R)-1-[8-(6-chloro-7-hydroxy-2-oxo-2H-1-benzopyran-3-yl)-3-hydroxy-3-oxido-8-oxo-2,4-dioxa-7-aza-3-phosphaoct-1-yl]-1,2-ethanediyl] ester) was prepared in dry DMSO. See also, Improved indicators of cell membrane potential that use fluorescence resonance energy transfer, Gonzalez, J. E. and Tsien, R. Y. (1997) Chem. Biol. 4, 269-277.
Voltage Assay Background Suppression Compound (VABSC-1) is prepared in H2O (89-363 mM, range used to maintain solubility)
Human Serum (HS, Millipore #S1P1-01KL, or Sigma SLBR5469V and SLBR5470V as a 50%/50% mixture, for 25% assay final concentration)
• Sodium Chloride 160 mM (9.35 g/L), Potassium Chloride, 4.5 mM (0.335 g/L), Glucose • 10 mM (1.8 g/L), Magnesium Chloride (Anhydrous) 1 mM (0.095 g/L), Calcium • Chloride 2 mM (0.222 g/L), HEPES 10 mM (2.38 g/L) in water.
• Sodium Chloride 96 mM (5.61 g/L), Potassium Chloride 4.5 mM (0.335 g/L), • Tetramethylammonium (TMA)-Cl 64 mM (7.01 g/L), Glucose 10 mM (1.8 g/L), • Magnesium Chloride (Anhydrous) 1 mM (0.095 g/L), Calcium Chloride 2 mM (0.222 • g/L) HEPES 10 mM (2.38 g/L) in water. […]

| Compound | IC50 [nM] |
| --- | --- |
| COc1c([C@H]2[C@H](C(=O)Nc3cnc4c(c3)OCC4O)O[C@@](C)(C(F)(F)F)[C@H]2C)ccc(F)c1F (single isomer, unassigned) [Compound 2, rel-(2R*,3S*,4S*,5R*)-3-(3,4-difluoro-2-methoxyphenyl)-N-(3-hydroxy-2,3-dihydrofuro[3,2-b]pyridin-6-yl)-4,5-dimethyl-5-(trifluoromethyl)tetrahydrofuran-2-carboxamide] | 100 to 1000 |
| COCCOc1c([C@H]2[C@@H](C(=O)Nc3cnc(C(O)CO)nc3)O[C@@](C)(C(F)(F)F)[C@H]2C)ccc(F)c1C (single isomer, unassigned) [Compound 16] | ≥ 1000 |
| COCCOc1c([C@H]2[C@@H](C)[C@@](C)(C(F)(F)F)O[C@H]2C(=O)Nc2cnc(C(O)CO)nc2)ccc(F)c1C (single isomer, unassigned) [Compound 15] | ≥ 1000 |
| COCCOc1c([C@H]2[C@H](C(=O)Nc3ccc([C@@H](O)CO)nc3)O[C@@](C)(C(F)(F)F)[C@H]2C)ccc(F)c1F [Compound 10, (2R,3S,4S,5R)-3-(3,4-difluoro-2-(2-methoxyethoxy)phenyl)-N-(6-((R)-1,2-dihydroxyethyl)pyridin-3-yl)-4,5-dimethyl-5-(trifluoromethyl)tetrahydrofuran-2-carboxamide] | < 10 |
